Laboratory results taken from patent US20240016938A1, “METHODS FOR INCREASING THE BIOAVAILABILITY OF NUCLEOSIDE MEDICINAL AGENTS” (ZOGENIX MDS, INC., priority 2022, published 2024).
Like-named read-outs stand apart in the source and are kept apart here.

Experiment: Phase 1 open-label, fixed-sequence, single-ascending dose and food-effect PK study of MT1621 in adult healthy subjects
Assay type: in vivo, human
Settings: for half-life: read-out: t½ (converted)
Procedure: A phase 1 study was conducted as an open-label, fixed-sequence, single-ascending dose study in adult healthy subjects designed to evaluate the safety, tolerability, PK, and food-effect of MT1621 (dC and dT). To evaluate the PK of MT1621, the combination was administered at three different doses. Treatment A was a 43.3 mg/kg dose of MT1621 (i.e., a 43.3 mg/kg dose of dC and a 43.3 mg/kg dose of dT (each approximately equivalent to 1 dose of a 130 mg/kg daily dose, divided 3 times daily [TID])) in healthy male and female subjects under fasting conditions; Treatment B was an 86.7 mg/kg dose of MT1621 (i.e., a 86.7 mg/kg dose of dC and a 86.7 mg/kg dose of dT (each approximately equivalent to 1 dose of a 260 mg/kg daily dose, divided TID)) in healthy male and female subjects under fasting conditions; and Treatment C was a 133.3 mg/kg dose of MT1621 (i.e., a 133.3 mg/kg dose of dC and a 133.3 mg/kg dose of dT (each approximately equivalent to a 400 mg/kg daily dose, divided TID)) in healthy male and female subjects under fasting conditions. Additionally, Treatment D was a 133.3 mg/kg dose of MT1621 (i.e., a 133.3 mg/kg dose of dC and a 133.3 mg/kg dose of dT (each approximately equivalent to a 400 mg/kg daily dose, divided TID) in healthy male and female subjects under fed conditions, to determine the effect of a high-fat meal on the single-dose PK of MT1621.
Methodology of open-label, Phase 1, fixed-sequence, single-dose, dose escalation, and food-effect study. Fourteen (14) healthy, adult, male and female subjects were enrolled with an approximately equal distribution (at least 40% of each sex) between male and female subjects.
On Day 1 of each period, subjects received 1 of 3 dose levels of MT1621 under fasting conditions as escalating single doses over 3 periods in Part A (Treatments A, B, and C in Periods 1, 2, and 3, respectively) and with the highest dose under fed conditions in Part B (Treatment D in Period 4). Four (4) of 14 subjects that completed Part A (Periods 1 to 3) could not complete Part B (Treatment D in Period 4) during the original confinement. These subjects were then to return to the clinical unit and continue the study to complete Part B (Treatment D in Period 4); 2 of the 4 subjects completed Part B.
Each treatment was assessed by blood and urine PK sampling pre-dose and up to 48 hours post-dose for the determination of dC and dT in plasma and urine PK, and possible future analysis of blood for PD biomarkers.
A washout period of at least 2 days without drug between each treatment administration was maintained. Fourteen subjects were enrolled in the study, and 12 subjects completed the study. Data from 14 subjects were included in the PK analysis of Periods 1, 2, and 3 and data from 12 subjects were included in the PK analysis of Period 4.
Study drug administered in Example 1 was 0.5 g dC and 0.5 g dT powders for solution and were reconstituted in juice or water.
After reconstitution in a fixed amount of water or juice, the solution was administered via measured volume to provide the amounts specified in Studies A, B, C, and D.
MT1621 was administered orally at Hour 0 on Day 1, following an overnight fast for Treatments A, B, and C and within 5 minutes of consumption of a standardized high-fat breakfast (which included eggs, bacon, and toast with butter) for Treatment D.
Blood samples for the determination of plasma dC and dT concentrations were collected on Day 1 of each period at pre-dose (0 hour), and at 0.25, 0.5, 1, 1.5, 2, 3, 4, 5, 6, 8, 12, 24, and 48 after study drug administration. In Period 4, blood was collected for the 48-hour PK sample; for Periods 1 through 3, the 48-hour PK sample was collected at the same time as the pre-dose PK sample from the next period so only 1 sample was collected for both PK time points. It should be pointed out that Periods 1-3 used sampling up to 24 hours for PK while Period 4 used the complete 48-hour profile. […]

[1] = 100*(test/reference): 133.3 mg/kg MT1621 fed vs fasted, baseline-adjusted plasma
[2] = Treatment A: single 43.3 mg/kg MT1621, fasted, baseline-adjusted plasma, arithmetic mean ± SD
[3] = Treatment B: single 86.7 mg/kg MT1621, fasted, baseline-adjusted plasma, arithmetic mean ± SD
[4] = Treatment C: single 133.3 mg/kg MT1621, fasted, baseline-adjusted plasma, arithmetic mean ± SD
[5] = Treatment D: single 133.3 mg/kg MT1621, fed (high-fat breakfast), baseline-adjusted plasma, arithmetic mean ± SD
[6] = across the 3 fasted dose levels (Treatments A, B, C), plasma

- increase in baseline adjusted AUC, fed compared to fasted (133.3 mg/kg MT1621, plasma): 74%
- increase in baseline adjusted Cmax, fed compared to fasted (133.3 mg/kg MT1621, plasma): 27%
- AUC0-t GMR (%) [1]: 174.38%
- Cmax GMR (%) [1]: 127.39%
- AUC%extrap [2]: 46.24 NC %
- Kel [2]: 0.1569 NC 1/hr
- AUC%extrap [3]: 6.481 ± 5.9830%
- Kel [3]: 0.0932 ± 0.07205 h⁻¹
- AUC%extrap [4]: 1.954 ± 1.6169%
- Kel [4]: 0.09785 ± 0.06094 h⁻¹
- AUC%extrap [5]: 1.244 ± 1.1349%
- Kel [5]: 0.2445 ± 0.2863 h⁻¹
- Vd/F (both sexes, human, oral, Treatment D: single 133.3 mg/kg MT1621, fed (high-fat breakfast), baseline-adjusted plasma, arithmetic mean ± SD, read-out: Vz/F): 6220 ± 2880 L/kg
- half-life (both sexes, human, plasma, oral, 43.3 mg/kg, Treatment A: single 43.3 mg/kg MT1621, fasted, baseline-adjusted plasma, arithmetic mean ± SD): 4.42 h
- AUC(0-inf) (both sexes, human, plasma, oral, 43.3 mg/kg, Treatment A: single 43.3 mg/kg MT1621, fasted, baseline-adjusted plasma, geometric mean (geometric CV %)): 3.56 ng·h/mL
- AUC(0-t) (both sexes, human, plasma, oral, 43.3 mg/kg, Treatment A: single 43.3 mg/kg MT1621, fasted, baseline-adjusted plasma, geometric mean (geometric CV %), read-out: AUC0-4): 8.78 ng·h/mL
- AUC(0-t) (both sexes, human, plasma, oral, 43.3 mg/kg, Treatment A: single 43.3 mg/kg MT1621, fasted, baseline-adjusted plasma, geometric mean (geometric CV %), read-out: AUC0-6): 11.1 ng·h/mL
- AUC(0-t) (both sexes, human, plasma, oral, 43.3 mg/kg, Treatment A: single 43.3 mg/kg MT1621, fasted, baseline-adjusted plasma, geometric mean (geometric CV %), read-out: AUC0-48): 18.2 ng·h/mL
- AUC(0-t) (both sexes, human, plasma, oral, 43.3 mg/kg, Treatment A: single 43.3 mg/kg MT1621, fasted, baseline-adjusted plasma, geometric mean (geometric CV %), read-out: AUC0-t): 12.6 ng·h/mL
- Cmax (both sexes, human, plasma, oral, 43.3 mg/kg, Treatment A: single 43.3 mg/kg MT1621, fasted, baseline-adjusted plasma, geometric mean (geometric CV %), read-out: Cmax): 6.19 ng/mL
- Tmax (both sexes, human, plasma, oral, 43.3 mg/kg, Treatment A: single 43.3 mg/kg MT1621, fasted, baseline-adjusted plasma, median (minimum, maximum), read-out: Tmax): 0.516 h
- half-life (both sexes, human, plasma, oral, 86.7 mg/kg, Treatment B: single 86.7 mg/kg MT1621, fasted, baseline-adjusted plasma, arithmetic mean ± SD): 10.4 ± 5.95 h
- AUC(0-inf) (both sexes, human, plasma, oral, 86.7 mg/kg, Treatment B: single 86.7 mg/kg MT1621, fasted, baseline-adjusted plasma, geometric mean (geometric CV %)): 67.2 ng·h/mL
- AUC(0-t) (both sexes, human, plasma, oral, 86.7 mg/kg, Treatment B: single 86.7 mg/kg MT1621, fasted, baseline-adjusted plasma, geometric mean (geometric CV %), read-out: AUC0-4): 21 ng·h/mL
- AUC(0-t) (both sexes, human, plasma, oral, 86.7 mg/kg, Treatment B: single 86.7 mg/kg MT1621, fasted, baseline-adjusted plasma, geometric mean (geometric CV %), read-out: AUC0-6): 23.1 ng·h/mL
- AUC(0-t) (both sexes, human, plasma, oral, 86.7 mg/kg, Treatment B: single 86.7 mg/kg MT1621, fasted, baseline-adjusted plasma, geometric mean (geometric CV %), read-out: AUC0-48): 82.1 ng·h/mL
- AUC(0-t) (both sexes, human, plasma, oral, 86.7 mg/kg, Treatment B: single 86.7 mg/kg MT1621, fasted, baseline-adjusted plasma, geometric mean (geometric CV %), read-out: AUC0-t): 31.7 ng·h/mL
- Cmax (both sexes, human, plasma, oral, 86.7 mg/kg, Treatment B: single 86.7 mg/kg MT1621, fasted, baseline-adjusted plasma, geometric mean (geometric CV %), read-out: Cmax): 14.2 ng/mL
- Tmax (both sexes, human, plasma, oral, 86.7 mg/kg, Treatment B: single 86.7 mg/kg MT1621, fasted, baseline-adjusted plasma, median (minimum, maximum), read-out: Tmax): 1.06 h
- AUC(0-t) (both sexes, human, plasma, oral, 133.3 mg/kg, Treatment C, fasted, baseline-adjusted plasma, ANOVA on ln-transformed data, read-out: AUC0-t Geometric LSM, 133.3 mg/kg MT1621, Fasted (Reference)): 91.2 ng·h/mL
- Cmax (both sexes, human, plasma, oral, 133.3 mg/kg, Treatment C, fasted, baseline-adjusted plasma, ANOVA on ln-transformed data, read-out: Cmax Geometric LSM, 133.3 mg/kg MT1621, Fasted (Reference)): 31.5 ng/mL
- half-life (both sexes, human, plasma, oral, 133.3 mg/kg, Treatment C: single 133.3 mg/kg MT1621, fasted, baseline-adjusted plasma, arithmetic mean ± SD): 8.76 ± 4.04 h
- AUC(0-inf) (both sexes, human, plasma, oral, 133.3 mg/kg, Treatment C: single 133.3 mg/kg MT1621, fasted, baseline-adjusted plasma, geometric mean (geometric CV %)): 144 ng·h/mL
- AUC(0-t) (both sexes, human, plasma, oral, 133.3 mg/kg, Treatment C: single 133.3 mg/kg MT1621, fasted, baseline-adjusted plasma, geometric mean (geometric CV %), read-out: AUC0-4): 53.1 ng·h/mL
- AUC(0-t) (both sexes, human, plasma, oral, 133.3 mg/kg, Treatment C: single 133.3 mg/kg MT1621, fasted, baseline-adjusted plasma, geometric mean (geometric CV %), read-out: AUC0-6): 60.6 ng·h/mL
- AUC(0-t) (both sexes, human, plasma, oral, 133.3 mg/kg, Treatment C: single 133.3 mg/kg MT1621, fasted, baseline-adjusted plasma, geometric mean (geometric CV %), read-out: AUC0-48): 114 ng·h/mL
- AUC(0-t) (both sexes, human, plasma, oral, 133.3 mg/kg, Treatment C: single 133.3 mg/kg MT1621, fasted, baseline-adjusted plasma, geometric mean (geometric CV %), read-out: AUC0-t): 91.2 ng·h/mL
- Cmax (both sexes, human, plasma, oral, 133.3 mg/kg, Treatment C: single 133.3 mg/kg MT1621, fasted, baseline-adjusted plasma, geometric mean (geometric CV %), read-out: Cmax): 31.5 ng/mL
- Tmax (both sexes, human, plasma, oral, 133.3 mg/kg, Treatment C: single 133.3 mg/kg MT1621, fasted, baseline-adjusted plasma, median (minimum, maximum), read-out: Tmax): 1.25 h
- AUC(0-t) (both sexes, human, plasma, oral, 133.3 mg/kg, Treatment D, fed, baseline-adjusted plasma, ANOVA on ln-transformed data, read-out: AUC0-t Geometric LSM, 133.3 mg/kg MT1621, Fed (Test)): 159 ng·h/mL
- Cmax (both sexes, human, plasma, oral, 133.3 mg/kg, Treatment D, fed, baseline-adjusted plasma, ANOVA on ln-transformed data, read-out: Cmax Geometric LSM, 133.3 mg/kg MT1621, Fed (Test)): 40.1 ng/mL
- half-life (both sexes, human, plasma, oral, 133.3 mg/kg, Treatment D: single 133.3 mg/kg MT1621, fed (high-fat breakfast), baseline-adjusted plasma, arithmetic mean ± SD): 5.35 ± 3.11 h
- AUC(0-inf) (both sexes, human, plasma, oral, 133.3 mg/kg, Treatment D: single 133.3 mg/kg MT1621, fed (high-fat breakfast), baseline-adjusted plasma, geometric mean (geometric CV %)): 149 ng·h/mL
- AUC(0-t) (both sexes, human, plasma, oral, 133.3 mg/kg, Treatment D: single 133.3 mg/kg MT1621, fed (high-fat breakfast), baseline-adjusted plasma, geometric mean (geometric CV %), read-out: AUC0-4): 74.4 ng·h/mL
- AUC(0-t) (both sexes, human, plasma, oral, 133.3 mg/kg, Treatment D: single 133.3 mg/kg MT1621, fed (high-fat breakfast), baseline-adjusted plasma, geometric mean (geometric CV %), read-out: AUC0-6): 119 ng·h/mL
- AUC(0-t) (both sexes, human, plasma, oral, 133.3 mg/kg, Treatment D: single 133.3 mg/kg MT1621, fed (high-fat breakfast), baseline-adjusted plasma, geometric mean (geometric CV %), read-out: AUC0-48): 141 ng·h/mL
- AUC(0-t) (both sexes, human, plasma, oral, 133.3 mg/kg, Treatment D: single 133.3 mg/kg MT1621, fed (high-fat breakfast), baseline-adjusted plasma, geometric mean (geometric CV %), read-out: AUC0-t): 159 ng·h/mL
- Cmax (both sexes, human, plasma, oral, 133.3 mg/kg, Treatment D: single 133.3 mg/kg MT1621, fed (high-fat breakfast), baseline-adjusted plasma, geometric mean (geometric CV %), read-out: Cmax): 40.1 ng/mL
- Tmax (both sexes, human, plasma, oral, 133.3 mg/kg, Treatment D: single 133.3 mg/kg MT1621, fed (high-fat breakfast), baseline-adjusted plasma, median (minimum, maximum), read-out: Tmax): 4 h
- Tmax (both sexes, human, plasma, oral, under fasted conditions, read-out: median Tmax): 1 h
- Tmax (both sexes, human, plasma, oral, under fed conditions, read-out: median Tmax): 3 h
- plasma exposure compared to endogenous (baseline) concentrations (following MT1621, all 3 dose levels): consistently higher
Compound: Cc1cn([C@H]2C[C@H](O)[C@@H](CO)O2)c(=O)[nH]c1=O [dT, β-D-2′-deoxythymidine]
- dose proportionality of AUC (total extent of exposure, AUC0-t and AUC0-inf) [6]: neither AUC nor Cmax was dose proportional
- dose proportionality of Cmax [6]: neither AUC nor Cmax was dose proportional
